Results on one compound are retold here after patent publication US11357817B2, “Immunoproteasome inhibitor” (The Regents of the University of California, priority 2017, dated 2022).

pIC50, pKi: −log10 of the molar value.

The target of test [1] is T1, c20S (Homo sapiens, UniProt P20618+P28074).
T1 construct: purchased Boston Biochem
Description: Calculation of inhibition constants (inactivation kinetics), c20S. The test is classed as biochemical. On the procedure:
The rate of AMC release was calculated in the presence of serial dilution of each inhibitor. The rate of product formation were calculated at 30 min intervals for 4 hours, and normalized to activity DMSO control to calculate inactivation curves. Kobs values for each inhibitor concentration were calculated from inactivation curves, and inhibition constants KI and kinact were calculated by non-linear regression of Kobs and inhibitor concentration using GraphPad Prism 6 software.

Test [2] has as its system P. falciparum Stage V gametocytes. The test is described as follows: Compound sensitivity testing of Stage V gametocytes. The test is classed as cell-based. The conditions noted are these: Plasmodium falciparum, read-out: IC50 against stage V gametocytes. On the procedure: Gametocytes were induced in NF54 or derived clones as previously described (33). Asexual blood stage parasites were synchronized at ring stage using 5% sorbitol for three consecutive life cycles. Once the culture reached a parasitemia of 8-10% ring stages, half of the media was exchanged to stress the parasites. Twenty-four hours later, the culture media was exchanged with fresh media and the culture was shaken overnight. The following day, the culture was treated with 50 mM N-acetyl-glucosamine (NAG) (in complete media), and new media containing NAG was added every day for 10 days to clear remaining asexual blood stage parasites and enrich for gametocytes. After 10 days, complete media without NAG was provided each day for the last two days of gametocyte development in order to obtain ˜1% gametocytemia with >80% Stage V specificity and no visible asexual blood stage parasites (assessed via Giemsa-stained thin smears). Drug Sensitivity of Stage V gametocytes were then determined using a published protocol using mitotracker red (34). Each compound was tested in technical triplicate in a ten-point concentration curve prepared by three-fold dilution starting at 12.5 μM. At least three independent experiments were carried out for EC50 determination and puromycin was used as a positive control. […]

As to `CCCCCC(=O)N[C@@H](C(=O)N[C@@H](CCCC)C(=O)N[C@@H](CC(C)C)C(=O)[C@@]1(C)CO1)C(C)C` [Analog 18, (S)-2-((R)-2-hexanamido-3-methylbutanamido)-N—((S)-4-methyl-1-((R)-2-methyloxiran-2-yl)-1-oxopentan-2-yl)hexanamide], the pKi (as a rule, the negative decadic logarithm of the Ki, by convention in mol/L) in test [1] (c20S) is 4.41. The “loss in potency to the human c20S proteasome” value in test [1] (kinact/Ki, 18 versus 1) is listed as 100 fold. For the same compound, the pIC50 (in general, the IC50 on a negative log10 scale, so that one unit is a factor of ten) in test [2] was 6.89.
